Laboratory results taken from paper PMC4550478, “Metronidazole-triazole conjugates: Activity against Clostridium difficile and parasites” (European Journal of Medicinal Chemistry, 2015).
Values after ≈ are worked out from the molar mass of the structure shown. Where two headings read alike, the source gives them in different places.

Columns and labels:
[1] = test system: G. lamblia BRIS/87/HEPU/713 (713); parameters: method as in earlier work; conditions: MtzS, crude Mtz-triazoles (>85% purity), ref 15 (Miyamoto et al.); read-out: EC50 G. lamblia 713, Lit.; cited from earlier work
[2] = test system: H. pylori clinical isolate 13/61; assay: MIC agar dilution, H. pylori 13/61; assay type: cell-based; conditions: Helicobacter pylori, MtzR clinical isolate
Description: (§1) All compounds were tested for activity against a set of anaerobic C. difficile bacteria (630 ATCC BAA-1382, NAP1/027 M7404, NAP1/027 ATCC BAA-1803, VPI10463 ATCC 43255, CD26A54_S and CD26A54_R) and representative ESKAPE pathogens S. aureus (MRSA ATCC 43300), E. coli (ATCC 25922), K. pneumoniae (ATCC 700603), A. baumannii (ATCC 19606) and P. aeruginosa (ATCC 27853) using a standard broth microdilution assay. Selected compounds were tested for activity against H. pylori strains (26695, and clinical isolates MtzS 13/25, MtzR 98/285 and MtzR 13/61) using agar plate dilution, and for antimicrobial activity against […] Gram-positive bacterial strains: Enterococcus faecalis (VanA clinical isolate), Enterococcus faecium (MDR VanA ATCC 51559), Streptococcus pneumoniae (MDR ATCC 700677), S. aureus (MRSA ATCC 43300, MRSA clinical isolate, MRSA/DRSA clinical isolate, GISA NARSA NRS 1, GISA NARSA NRS 17, VRSA NARSA VRS1, VRSA NARSA VRS4 and VRSA NARSA VRS10) using broth microdilution. C. difficile strains were grown at 37 °C in a COY anaerobic chamber (5% H2, 10% CO2, 85% N2). H. pylori strains were grown at 37 °C under a microaerobic atmosphere (5% O2, 10% CO2). All facultative anaerobic bacteria were grown at 37 °C with normal atmospheric oxygen levels. All experiments were performed in duplicate with metronidazole, vancomycin, linezolid or colistin as positive controls for relevant strains (see Table 1). Positive growth control of bacteria and DMSO as well as a negative control of only media were included for every plate. Full assay details are provided in the supplementary information.
(§2) Helicobacter pylori strains, with a range of resistance levels to metronidazole (256 µg/ml, 64 µg/ml, 24 µg/ml, 2 µg/ml, and 0.04 µg/ml), were selected and obtained from Helicobacter Research Laboratory, University of Western Australia. The resistance strength to metronidazole was recorded according to eTest (bioMérieux). H. pylori strain 26695 was used as the control. H. pylori was maintained on the non-selective Columbia blood agar plates (CBA) (Columbia agar base Oxoid) with 5% horse blood and incubated at 37 °C and 10% CO2 for 48 hrs. […] Each of the H. pylori strains were harvested, OD600 calibrated to 0.3, and spotted in triplicate on CBA pre-mixed with the compound. The lowest concentration of antibiotic showing no growth was read as the MIC. The experiment was performed in duplicate.

[3] = test system: H. pylori clinical isolate 13/25; assay: MIC agar dilution, H. pylori 13/25; assay type: cell-based; conditions: Helicobacter pylori, MtzS clinical isolate
Description: as §1, §2

[4] = MIC broth microdilution, drug resistant Gram-positive panel; assay type: cell-based; conditions: all strains of the panel; read-out: MIC against panel of drug resistant Gram-positive strains
Description: as §1
MICs were determined by a two-fold serial broth micro dilution according to the recommendation of CLSI standards with an inoculum of 5 × 10^5 CFU/mL^4 The compounds along with standard antibiotics were serially diluted twofold across the wells of 96-well non-binding surface plates (NBS, Corning). Standards ranged from 64 to 0.03 μg/mL, and the compounds from 128 to 0.06 μg/mL with final volumes of 50 μL per well. Gram-positive and Gram-negative bacteria were cultured in Mueller Hinton broth (MHB) (Bacto laboratories, Cat. no. 211443) at 37 °C overnight. A sample of each culture was then diluted 40-fold in fresh MHB broth and incubated at 37 °C for 2-3 h. The resultant mid-log phase cultures were diluted to the final concentration of 5 × 10^5 CFU/mL, then 50 μL was added to each well of the compound containing 96-well plates. All the plates were covered and incubated at 37 °C for 24 h.

[5] = test system: G. lamblia BRIS/83/HEPU/106 (106); parameters: method as in earlier work; conditions: MtzS, crude Mtz-triazoles (>85% purity), ref 15 (Miyamoto et al.); read-out: EC50 G. lamblia 106, Lit.; cited from earlier work
[6] = test system: H. pylori clinical isolate 98/285; assay: MIC agar dilution, H. pylori 98/285; assay type: cell-based; conditions: Helicobacter pylori, MtzR clinical isolate
Description: as §1, §2

[7] = Cytotoxicity, resazurin, HepG2; assay type: cell-based; conditions: human
Description: Compounds were tested for cytotoxicity against mammalian HepG2 and HEK293 cell lines, as detailed in the supplementary information.
HEK293 and HepG2 cells were seeded as 3000 and 5000 cells per well in 384-well plates, respectively. Cells were cultured in DMEM with 1% FBS for 24 hours at 37 °C, 5% CO2. Then a dilution series of compounds was added into each well, with the highest concentration of 100 µM. […] After 24 hours incubation with the compounds, 5 µM resazurin were added into each well and incubated at 37 °C for 2 hours. As a negative control, 1% Triton X-100 was added into the culture media to lyse all the cells. The fluorescence intensity was read using Polarstar Omega with excitation/emission 560/590. The data was analysed by GraphPad Prism software. Results are presented as the average percentage of control ± SD using the following equation: Percentage of Growth = (FITEST – FINegative/FIUNTREATED –FINegative)*100.

In the case of Cc1ncc([N+](=O)[O-])n1CCO [Compound 1, metronidazole], the EC50 [1] is listed as 2000 nM, the MIC [2] is listed as 32 to 64 µg/mL (≈ 187 to 374 µM) and the MIC [3] is listed as 4 to 8 µg/mL (≈ 23.4 to 46.7 µM). The MIC [4] was over 64 µg/mL, the EC50 [5] was 3600 nM and the MIC [6] was 64 µg/mL (≈ 374 µM). For the same molecule, the CC50 at 24 h [7] was over 100000 nM.
For Cc1ncc([N+](=O)[O-])n1CCn1cc(Cc2ccccc2)nn1 [Compound 4k, 1-(2-(2-methyl-5-nitro-1H-imidazol-1-yl)ethyl)-4-benzyl-1H-1,2,3-triazole], the EC50 [1] is given as 390 nM and the EC50 [5] is given as 710 nM.
In the case of Cc1ccc(-c2cn(CCn3c([N+](=O)[O-])cnc3C)nn2)cc1 [Compound 4e, 1-(2-(2-methyl-5-nitro-1H-imidazol-1-yl)ethyl)-4-(p-tolyl)-1H-1,2,3-triazole], the EC50 [1] is given as 530 nM and the EC50 [5] is given as 2100 nM.
Molecule Cc1ncc([N+](=O)[O-])n1CCn1cc(CO)nn1 [Compound 4q, 1-(2-(2-methyl-5-nitro-1H-imidazol-1-yl)ethyl)-4-(hydroxymethyl)-1H-1,2,3-triazole] has an MIC [4] of over 64 µg/mL.
In the case of Cc1ncc([N+](=O)[O-])n1CCn1cc(-c2ccccc2)nn1 [Compound 4a, 1-(2-(2-methyl-5-nitro-1H-imidazol-1-yl)ethyl)-4-phenyl-1H-1,2,3-triazole], the EC50 [1] is listed as 160 nM, the MIC [4] is listed as over 64 µg/mL and the EC50 [5] is listed as 260 nM.
Cc1ncc([N+](=O)[O-])n1CCn1cc(Cn2cccn2)nn1 [Compound 4g, 1-(2-(2-methyl-5-nitro-1H-imidazol-1-yl)ethyl)-4-((1H-pyrazol-1-yl)methyl)-1H-1,2,3-triazole] showed an MIC [2] of 16 to 32 µg/mL (≈ 52.9 to 106 µM), an MIC [3] of 2 µg/mL (≈ 6.62 µM) and an MIC [6] of 16 to 32 µg/mL (≈ 52.9 to 106 µM).
For Cc1ncc([N+](=O)[O-])n1CCn1cc(-c2ccccn2)nn1 [Compound 4h, 1-(2-(2-methyl-5-nitro-1H-imidazol-1-yl)ethyl)-4-(2-pyridinyl)-1H-1,2,3-triazole.xTFA], the EC50 [1] is listed as 350 nM, the MIC [2] is listed as 16 µg/mL and the MIC [3] is listed as 1 µg/mL. For the same molecule, the EC50 [5] was 560 nM and the MIC [6] was 32 µg/mL.
For Cc1ncc([N+](=O)[O-])n1CCn1cc(-c2ccsc2)nn1 [Compound 4n, 1-(2-(2-methyl-5-nitro-1H-imidazol-1-yl)ethyl)-4-(thiophen-3-yl)-1H-1,2,3-triazole], the EC50 [1] is listed as 230 nM and the EC50 [5] is listed as 340 nM.
For Cc1ncc([N+](=O)[O-])n1CCn1cc(-c2ccc(Cl)c(Cl)c2)nn1 [Compound 4d, 1-(2-(2-methyl-5-nitro-1H-imidazol-1-yl)ethyl)-4-(3,4-dichlorophenyl)-1H-1,2,3-triazole], the EC50 [1] is listed as 310 nM and the EC50 [5] is listed as 1400 nM.
In the case of Cc1ncc([N+](=O)[O-])n1CCn1cc(CN(C)Cc2ccccc2)nn1 [Compound 4m, 1-(2-(2-methyl-5-nitro-1H-imidazol-1-yl)ethyl)-4-(N-benzyl, N-methylaminomethyl)-1H-1,2,3-triazole], the EC50 [1] is given as 910 nM, the MIC [2] is given as 16 µg/mL (≈ 45 µM) and the MIC [3] is given as 2 µg/mL (≈ 5.63 µM). The EC50 [5] was 300 nM.
Cc1ncc([N+](=O)[O-])n1CCN=[N+]=[N-] [Compound 3, 1-(2-azidoethyl)-2-methyl-5-nitro-1H-imidazole] showed a CC50 at 24 h ([7]; no cytotoxicity up to 100 μM, 24 hours incubation, read-out: CC50 HepG2) of over 100000 nM.
In the case of COC(=O)c1cn(CCn2c([N+](=O)[O-])cnc2C)nn1 [Compound 4f, 1-(2-(2-methyl-5-nitro-1H-imidazol-1-yl)ethyl)-4-(methoxycarbonyl)-1H-1,2,3-triazole], the MIC [3] is reported as 32 to 64 µg/mL (≈ 114 to 228 µM).
In the case of Cc1ncc([N+](=O)[O-])n1CCn1cc(C(=O)O)nn1 [Compound 4s, 1-(2-(2-methyl-5-nitro-1H-imidazol-1-yl)ethyl)-4-(carboxy)-1H-1,2,3-triazole], the MIC [2] is reported as over 64 µg/mL, the MIC [3] is reported as over 64 µg/mL and the MIC [6] is reported as over 64 µg/mL.
